According to paper PMC6268586, “Effect of Wine and Vinegar Processing of Rhizoma Corydalis on the Tissue Distribution of Tetrahydropalmatine, Protopine and Dehydrocorydaline in Rats” (Molecules, 2012):
Like-named read-outs stand apart in the source and are kept apart here.

Assay: Tissue distribution of THP, DHC and protopine in rat tissues after gastric gavage administration (HPLC-UV, non-compartmental analysis)
Type: in vivo, Wistar male rats
Details: male, Wistar, po, 26.1 mg/kg; for AUC(0-t): read-out: AUC0–24 h of DHC; for Cmax: read-out: Cmax of DHC; for MRT: read-out: MRT of DHC; for Tmax: read-out: Tmax of DHC
Procedure: The experimental protocol was approved by the University's Animal Ethics Committee. […] Rats had unlimited access to water. Standard food was given until 12 h before the experiments. Rhizoma Corydalis was processed according to Pharmacopoeia of Chinese Medicine and National Guideline of Traditional Chinese Medicinal Plants Processing. Briefly, fresh Rhizoma Corydalis was boiled in water till the pith turn light brown color. Cooked rhizome was sliced into pieces (4 mm, diameter) and dried at 25 °C. Dried slices were mixed with edible vinegar (100:20, rhizome/vinegar, w/v) or yellow wine (100:10, rhizome/wine, w/v) and the slices allowed to completely absorb the vinegar or wine. The soaked slices were then stir-fried in a metallic pan over a low flame till they were completely dry. The processed Rhizoma Corydalis was added with 70% ethanol (1:30 w/v) and sonicated for 1 h at room temperature. The extract was then concentrated to remove the ethanol residue and stored at 4 °C for further use. […] The ethanol extract of the unprocessed Rhizoma Corydalis and THP, DHC and protopine pure compound were used as the controls. Three hundred and sixty healthy rats were used in total and are divided into six groups (Group 1-6, sixty rats per group). Drugs were administrated by gastric gavage method. In order to keep the dose of THP, DHC and protopine constant in each group, the amount of ethanol extract of Rhizoma Corydalis administrated was normalized based on the dose of protopine pure compound used. The dose of THP and DHC pure compound administrated was same with that in the ethanol extract of Rhizoma Corydalis. The details were listed below. […] Rats were administrated with the 70% ethanol extract of unprocessed Rhizoma Corydalis at a dose of 17.75 g extract/kg body weight. […] Rats received the extract of vinegar-processed Rhizoma Corydalis at a dose of 15 g extract/kg rat body weight. Group 3: Rats were administrated with the extract of wine processed Rhizoma Corydalis at a dose of 15.78 g extract/kg body weight. […] Rats received THP pure compound at a dose of 6.45 mg/kg body weight. Group 6: Rats were administrated 26.10 mg of DHC pure compound/kg body weight. […] Brian tissue was further dissected into six parts: cerebrum, cerebellum, diencephalons, brain stem, hippocampus and striatum. All the tissue samples were rinsed with ice-old saline and stored at -20 °C until extraction. Tissue samples were homogenized in three volumes of ice-cold biological saline and centrifuged for 10 min at 10,000 g and 4 °C. An aliquot of the supernatant (0.5 mL) was collected. Liquid-liquid extraction was used to extract THP, DHC and protopine. One hundred microliter of 1.0 μg/mL nuciferin (internal standard) was mixed with 0.5 mL aliquots of the supernatant. […] The supernatant was evaporated completely under the nitrogen stream in a 60 °C water bath. The residue was redissolved in 100 μL of methanol. A CoMetro HPLC system (CoMetro Technology Ltd, South […], NJ, USA) with 6000 PVW detector UV-VIS detector was used. […] Ltd., Liaoning, China). Other chromatographic conditions were: column temperature, 35 °C; mobile phase, acetonitrile-0.1% phosphoric acid (pH 3.0) (30:70 v/v); flow rate, 1 mL/min; wavelength, 280 nm. Pharmacokinetic parameters were estimated by non-compartmental analysis using Equiv Test/PK (Statistical Solutions Ltd., Saugus, MA, USA). The maximum concentration (Cmax) and the time to reach the maximum concentration (Tmax) were directly obtained from the observed value. All data were represented as mean ± SD. Comparison of values between groups was performed using one-way ANOVA followed by Tukey's test for comparisons among four groups.

[1] = diencephalon, rat diencephalons

AUC(0-t) [1]: 210 ± 50 ng·h/mL
Cmax [1]: 80 ± 20 ng/mL
MRT [1]: 5.3 ± 0.12 h
Tmax [1]: 0.52 ± 0.11 h
AUC(0-t) (rat brain stem): 410 ± 60 ng·h/mL
Cmax (rat brain stem): 160 ± 30 ng/mL
MRT (rat brain stem): 4.29 ± 0.15 h
Tmax (rat brain stem): 0.5 h
AUC(0-t) (rat cerebellum): 170 ± 30 ng·h/mL
Cmax (rat cerebellum): 50 ± 20 ng/mL
MRT (rat cerebellum): 5.67 ± 0.32 h
Tmax (rat cerebellum): 0.25 h
AUC(0-t) (rat cerebrum): 150 ± 30 ng·h/mL
Cmax (rat cerebrum): 50 ± 10 ng/mL
MRT (rat cerebrum): 5.39 ± 0.19 h
Tmax (rat cerebrum): 0.25 ± 0.02 h
AUC(0-t) (rat heart): 850 ± 120 ng·h/mL
Cmax (rat heart): 440 ± 130 ng/mL
MRT (rat heart): 8.72 ± 6.38 h
Tmax (rat heart): 0.25 h
AUC(0-t) (rat hippocampus): 270 ± 60 ng·h/mL
Cmax (rat hippocampus): 70 ± 20 ng/mL
MRT (rat hippocampus): 8.43 ± 0.51 h
Tmax (rat hippocampus): 1.08 ± 0.07 h
AUC(0-t) (rat kidney): 890 ± 90 ng·h/mL
Cmax (rat kidney): 310 ± 20 ng/mL
MRT (rat kidney): 4.94 ± 0.12 h
Tmax (rat kidney): 0.25 ± 0.01 h
AUC(0-t) (rat liver): 1570 ± 340 ng·h/mL
Cmax (rat liver): 620 ± 180 ng/mL
MRT (rat liver): 4.85 ± 0.1 h
Tmax (rat liver): 0.25 h
AUC(0-t) (rat lung): 570 ± 130 ng·h/mL
Cmax (rat lung): 370 ± 110 ng/mL
MRT (rat lung): 3.98 ± 0.1 h
Tmax (rat lung): 0.25 ± 0.01 h
AUC(0-t) (rat spleen): 830 ± 190 ng·h/mL
Cmax (rat spleen): 360 ± 80 ng/mL
MRT (rat spleen): 3.26 ± 0.08 h
Tmax (rat spleen): 0.25 ± 0.1 h
AUC(0-t) (rat striatum): 210 ± 40 ng·h/mL
Cmax (rat striatum): 60 ± 20 ng/mL
MRT (rat striatum): 7.27 ± 0.3 h
Tmax (rat striatum): 0.25 ± 0.01 h
SMILES: COc1cc2c(cc1OC)-c1c(C)c3ccc(OC)c(OC)c3c[n+]1CC2 [DHC, dehydrocorydaline]
